# Test results published in ChEMBL document CHEMBL4725334, “Discovery of novel integrase-LEDGF/p75 allosteric inhibitors based on a benzene scaffold” (Bioorg Med Chem, 2020).
# Tests used:
# [1] = Cytotoxicity against human MT4 cells assessed as reduction in cell viability measured after 4 days by MTT assay; format: cell-based; conditions: time 4 day
# [2] = Binding affinity to LEDGF/p75 binding pocket of integrase in HIV-1 NL432 infected in human MT4 cells assessed as allosteric inhibition of IN-LEDGF/p75 interaction by measuring inhibition of virus-induced cytopathicity measured after 4 days by MTT assay; format: cell-based; conditions: Human immunodeficiency virus 1, NL432, MT4, 96 h
# [3] = Metabolic stability in human liver microsomes assessed as parent compound remaining at 0.5 uM incubated for 30 mins by LC-MS/MS analysis; format: ADME, Microsome; conditions: read-out: Stabilty
# [4] = Metabolic stability in rat liver microsomes assessed as parent compound remaining at 0.5 uM incubated for 30 mins by LC-MS/MS analysi; format: ADME, Microsome; conditions: read-out: Stabilty
# [5] = Total clearance in Sprague-Dawley rat at 0.5 mg/kg, iv and 1 mg/kg, po administered as cassette dosing measured for 24 hrs by LC-MS/MS analysis; format: ADME, organism-based; conditions: in vivo
# [6] = AUC in Sprague-Dawley rat at 0.5 mg/kg, iv measured for 24 hrs by LC-MS/MS analysis; format: ADME, organism-based; design: dose 0.5 mg/kg, time 24 hrs; conditions: in vivo
# [7] = Half-life in Sprague-Dawley rat at 0.5 mg/kg, iv and 1 mg/kg, po administered as cassette dosing measured for 24 hrs by LC-MS/MS analysis; format: ADME, organism-based; conditions: in vivo
# [8] = Oral bioavailability in Sprague-Dawley rat 1 mg/kg administered as cassette dosing measured for 24 hrs by LC-MS/MS analysis; format: ADME, organism-based; conditions: in vivo
Compound,CC50 at 96 h [1] [µM],EC50 [2] [nM],other results
Cc1ccc(-c2c(C)c(-c3ccc4c(c3)CCCO4)c(C(OC(C)(C)C)C(=O)O)c(C)c2NS(C)(=O)=O)cc1C (centres undefined),28,22,
Cc1ccc(-c2c(C)c(-c3ccc4c(c3)N(C)CCO4)c(C(OC(C)(C)C)C(=O)O)c(C)c2NS(C)(=O)=O)cc1C (centres undefined),31,31,
CNc1c(C)c(C(OC(C)(C)C)C(=O)O)c(-c2ccc(C)c(C)c2)c(C)c1-c1ccc(C)c(C)c1 (centres undefined),8.8,31,
Cc1nc2ccccc2c(-c2ccc3c4c(ccnc24)CCO3)c1[C@H](OC(C)(C)C)C(=O)O [BI-224436],> 50,56,"remaining at 0.5 h, 0.5 µM [3]: 98%; remaining at 0.5 h, 0.5 µM [4]: 100%; clearance [5]: 1.09 mL/min/kg; AUC at 24 h [6]: 7680 ng·h/mL; half-life [7]: 252 min; bioavailability [8]: 64%"
Cc1ccc(-c2c(C)c(-c3ccc(C)c(C)c3)c(C(OC(C)(C)C)C(=O)O)c(C)c2NS(C)(=O)=O)cc1C (centres undefined),15,11,
Cc1ccc(-c2c(C)c(-c3ccc(Cl)cc3)c(C(OC(C)(C)C)C(=O)O)c(C)c2NS(C)(=O)=O)cc1C (centres undefined),26,11,
Cc1ccc(-c2c(C)c(-c3ccc4c(c3)NCCO4)c(C(OC(C)(C)C)C(=O)O)c(C)c2NS(C)(=O)=O)cc1C (centres undefined),42,330,
Cc1ccc(-c2c(C)c(-c3ccccc3)c(C(OC(C)(C)C)C(=O)O)c(C)c2NS(C)(=O)=O)cc1C (centres undefined),> 50,34,
Cc1ccc(-c2c(C)c(-c3ccc(C)c(C)c3)c(C(OC(C)(C)C)C(=O)O)c(C)c2NS(=O)(=O)c2ccccc2)cc1C (centres undefined),11,33,
Cc1ccc(-c2c(C)c(-c3ccc(C)c(C)c3)c(C(OC(C)(C)C)C(=O)O)c(C)c2NCc2ccccc2)cc1C (centres undefined),4,480,
CCC(=O)Nc1c(C)c(C(OC(C)(C)C)C(=O)O)c(-c2ccc(C)c(C)c2)c(C)c1-c1ccc(C)c(C)c1 (centres undefined),15,19,
Cc1ccc(-c2c(C)c(-c3ccc4c(c3)CCO4)c(C(OC(C)(C)C)C(=O)O)c(C)c2NS(C)(=O)=O)cc1C (centres undefined),38,35,
Cc1ccc(-c2c(C)c(-c3ccc(C)c(C)c3)c(C(OC(C)(C)C)C(=O)O)c(C)c2NC(=O)Nc2ccccc2)cc1C (centres undefined),8,29,
Cc1ccc(-c2c(C)c(-c3ccc(C)c(C)c3)c(C(OC(C)(C)C)C(=O)O)c(C)c2NC(=O)c2ccccc2)cc1C (centres undefined),9.1,51,
Cc1ccc(-c2c(C)c(-c3ccc4c(c3C)CCCO4)c(C(OC(C)(C)C)C(=O)O)c(C)c2NS(C)(=O)=O)cc1C (centres undefined),24,3.9,"remaining at 0.5 h, 0.5 µM [3]: 59%; remaining at 0.5 h, 0.5 µM [4]: 61%; clearance [5]: 6.99 mL/min/kg; AUC at 24 h [6]: 1190 ng·h/mL; half-life [7]: 186 min; bioavailability [8]: 36%"
CNC(=O)Nc1c(C)c(C(OC(C)(C)C)C(=O)O)c(-c2ccc(C)c(C)c2)c(C)c1-c1ccc(C)c(C)c1 (centres undefined),20,77,
CC(=O)Nc1c(C)c(C(OC(C)(C)C)C(=O)O)c(-c2ccc(C)c(C)c2)c(C)c1-c1ccc(C)c(C)c1 (centres undefined),19,19,
Cc1ccc(-c2c(C)c(-c3ccc(C)c(C)c3)c(C(OC(C)(C)C)C(=O)O)c(C)c2NS(=O)(=O)C2CC2)cc1C (centres undefined),11,29,
CCNC(=O)Nc1c(C)c(C(OC(C)(C)C)C(=O)O)c(-c2ccc(C)c(C)c2)c(C)c1-c1ccc(C)c(C)c1 (centres undefined),15,37,
Cc1ccc(-c2c(C)c(-c3ccc(Cl)c(F)c3)c(C(OC(C)(C)C)C(=O)O)c(C)c2NS(C)(=O)=O)cc1C (centres undefined),22,26,
Cc1ccc(-c2c(C)c(-c3ccc(C)c(C)c3)c(C(OC(C)(C)C)C(=O)O)c(C)c2N)cc1C (centres undefined),12,27,
